{
  "source": "patent US6949260B2",
  "about": "“Method for treatment of inflammation and pain in mammals” (Metagenics, Inc., priority 2000, dated 2005)",
  "origin": "cited, not measured here",
  "key": {"human platelet": {"system": "human platelet", "conditions": "induced by arachidonic acid, adrenaline and collagen"}, "[1]": {"system": "thromboxane B2 production", "conditions": "in vitro"}},
  "data": [
    {"compound": "COc1cc(/C=C/C(=O)CC(=O)/C=C/c2ccc(O)c(OC)c2)ccc1O", "note": "[Curcumin]", "values": [
      {"measurement": "inhibition of human platelet aggregation", "setting": "human platelet", "result": "inhibit human platelet aggregation"},
      {"measurement": "thromboxane B2 production from arachidonic acid", "setting": "[1]", "result": "inhibits thromboxane B2 production"}
    ]}
  ]
}
